Laboratory results: BindingDB's records for patent US10941160 (Celgene Quanticel Research, 2021)

molecular target: Bromodomain-containing protein 4 (Homo sapiens, UniProt O60885); assay: In Vitro Enzyme Inhibition Assay
Description: His-tagged BRD4 was cloned, expressed and purified to homogeneity. BRD4 binding and inhibition was assessed by monitoring the interaction of biotinylated H4-tetraacetyl peptide (AnaSpec, H4K5/8/12/16(Ac), biotin-labeled) with the target using the AlphaScreen technology ([…]). […] After 20 min incubation at room temp, Alpha streptavidin donor beads and Nickel Chelate acceptor beads were added to a final concentration of 5 μg/mL.

Compound	IC50
Cn1cc(-c2cccc(S(O)(O)NC3CC3)c2)c2ccccc2c1=O [US10941160, Example 6]	in the range around 2750 nM
COc1ccc(-c2cn(C)c(=O)c3ccccc23)cc1S(N)(O)O [US10941160, Example 16]	in the range around 2750 nM
CCNS(O)(O)c1cccc(-c2cn(C)c(=O)c3cnccc23)c1 [US10941160, Example 53]	in the range around 2750 nM
COc1ccc(-c2cn(C)c(=O)c3cnccc23)cc1S(O)(O)NCc1ccccc1 [US10941160, Example 54]	> 5000 nM
Cn1cc(-c2cccc(S(N)(O)O)c2)c2ccncc2c1=O [US10941160, Example 55]	> 5000 nM
COc1ccc(-c2cn(C)c(=O)c3cnccc23)cc1S(N)(O)O [US10941160, Example 56]	> 5000 nM
CCNS(O)(O)c1cccc(-c2cn(C)c(=O)c3cc(F)ccc23)c1 [US10941160, Example 59]	in the range around 2750 nM
Cn1cc(-c2cccc(S(N)(O)O)c2)c2ccc(F)cc2c1=O [US10941160, Example 61]	< 500 nM
CCS(O)(O)c1ccc(O)c(-c2cn(C)c(=O)c3ccc(-c4cnn(C)c4)cc23)c1 [US10941160, Example 80]	< 500 nM
CCS(O)(O)c1ccc(OCC2CC2)c(-c2cn(C)c(=O)c3ccc(-c4cnn(C)c4)cc23)c1 [US10941160, Example 82]	< 500 nM
CCS(O)(O)c1cccc(-c2cn(C)c(=O)c(N)n2)c1 [US10941160, Example 105]	> 5000 nM
CCS(O)(O)c1cccc(-c2cc(N)c(=O)n(C)c2)c1 [US10941160, Example 108]	> 5000 nM
CCOc1ccc(S(N)(O)O)cc1-c1ccc(=O)n(C)c1 [US10941160, Example 117]	< 500 nM
Cn1cc(-c2cc(S(N)(O)O)ccc2Oc2ccc(F)cc2F)ccc1=O [US10941160, Example 118]	< 500 nM
CCS(O)(O)c1ccc(Oc2ccc(F)cc2F)c(-c2cc(F)c(=O)n(C)c2)c1 [US10941160, Example 121]	< 500 nM
CCS(O)(O)c1cccc(-c2cn(C)c(=O)c3ccncc23)c1 [US10941160, Example 126]	> 5000 nM

Compound	IC50
CCS(O)(O)c1cccc(-c2cn(C)c(=O)c3cncn23)c1 [US10941160, Example 133]	> 5000 nM
CCS(O)(O)c1ccc(OCC2CC2)c(-c2cn(C)c(=O)c3ccccc23)c1 [US10941160, Example 135]	< 500 nM
Cn1cc(-c2nc(N3CCC[SH]3(=O)O)ncc2OCC2CC2)c2ccccc2c1=O [US10941160, Example 156]	< 500 nM
CCS(O)(O)c1ccc(OCC2CC2)c(-c2cn(C)c(=O)c3ccc(F)cc23)c1 [US10941160, Example 174]	< 500 nM
CC#CCOc1ccc(S(O)(O)CC)cc1-c1cn(C)c(=O)c2ccccc12 [US10941160, Example 185]	< 500 nM
CCS(O)(O)c1ccc(NCC2CC2)c(-c2cn(C)c(=O)c3ccccc23)c1 [US10941160, Example 193]	< 500 nM
CCS(O)(O)c1ccc(NCC2CC2)c(-c2cn(C)c(=O)c3cc(F)ccc23)c1 [US10941160, Example 195]	< 500 nM
CCS(O)(O)c1ccc(OCC2CC2)c(-c2cn(C)c(=O)c3ccccc23)n1 [US10941160, Example 206]	< 500 nM
COc1ccc(S(O)(O)CCO)cc1-c1cn(C)c(=O)c2ccc(-c3cnn(C)c3)cc12 [US10941160, Example 208]	< 500 nM
CCS(O)(O)c1ccc(OC)c(-c2cn(C)c(=O)c3ccc(-c4cn[nH]c4)cc23)c1 [US10941160, Example 210]	< 500 nM
CCS(O)(O)c1ccc(OCC2CC2)c(-c2cn(C)c(=O)c3c2CCCC3)c1 [US10941160, Example 219]	< 500 nM
CCCOc1ccc(S(O)(O)CC)cc1-c1cn(C)c(=O)c2cnc(-c3cnn(C)c3)nc12 [US10941160, Example 225]	< 500 nM
CCS(O)(O)c1ccc(OCC2CC2)c(-c2cn(C)c(=O)c3cnc(-c4cnn(C)c4)nc23)c1 [US10941160, Example 226]	< 500 nM
CCOc1ccc(S(O)(O)CC)cc1-c1cn(C)c(=O)c2cnc(-c3cnn(C)c3)nc12 [US10941160, Example 227]	< 500 nM
CCS(O)(O)c1ccc(OCC2CC2)c(-c2cn(C)c(=O)c3cncnc23)c1 [US10941160, Example 232]	< 500 nM
CCS(O)(O)c1ccc(OCC2CC2)c(-c2cc(C)c(=O)n(C3CC3)c2)c1 [US10941160, Example 251]	< 500 nM

Further lines, results first:

IC50	Compound
< 500 nM	CCS(O)(O)c1ccc(OCC2CC2)c(-c2cn(C)c(=O)c3occc23)c1 [US10941160, Example 252]
< 500 nM	CCS(O)(O)c1ccc(OCC2CC2)c(-c2cn(C)c(=O)c3sc(C(N)=O)cc23)c1 [US10941160, Example 265]
< 500 nM	CCS(O)(O)c1ccc(OCC2CC2)c(-c2cn(C)c(=O)c3oc(C)cc23)c1 [US10941160, Example 270]
< 500 nM	CCS(O)(O)c1ccc(OCC2CC2)c(-c2cc(Cl)c(=O)n(C)c2)c1 [US10941160, Example 272]
< 500 nM	CCS(O)(O)c1ccc(OCC2CC2)c(-c2cc(F)c(=O)n(C)c2)c1 [US10941160, Example 274]
< 500 nM	CCS(O)(O)c1ccc(OCC2CC2)c(-c2cc(C3CC3)c(=O)n(C)c2)c1 [US10941160, Example 280]
< 500 nM	C#Cc1cc(-c2cc(S(O)(O)CC)ccc2OCC2CC2)cn(C)c1=O [US10941160, Example 284]
< 500 nM	CCS(O)(O)c1ccc(OCC2CC2)c(-c2cc(OC(F)F)c(=O)n(C)c2)c1 [US10941160, Example 287]
< 500 nM	CCS(O)(O)c1ccc(OCC2CC2)c(-c2cc(OCC(F)(F)F)c(=O)n(C)c2)c1 [US10941160, Example 288]
< 500 nM	CCCCc1cnc(NS(O)(O)CC)nc1-c1cc(C)c(=O)n(C)c1 [US10941160, Example 310]
< 500 nM	CCS(O)(O)c1cnc(OCC2CC2)c(-c2cn(C)c(=O)c3ccccc23)c1 [US10941160, Example 322]
< 500 nM	CCS(O)(O)Nc1cc(Oc2ccc(F)cc2F)cc(-c2cc(C)c(=O)n(C)c2)c1 [US10941160, Example 342]
< 500 nM	CCCCc1cnc(NS(O)(O)CC)nc1-c1cc(OC)c(=O)n(C)c1 [US10941160, Example 362]
< 500 nM	CC(C)S(O)(O)c1ccc(OCC2CC2)c(-c2cn(C)c(=O)c3ccccc23)c1 [US10941160, Example 364]
< 500 nM	CCS(O)(O)c1ccc(OCC2CC2)c(-c2cn(C)c(=O)c3c2OCCN3)c1 [US10941160, Example 366]
< 500 nM	CCS(O)(O)c1ccc(OCC2CC2)c(-c2cn(C)c(=O)c3cncn23)c1 [US10941160, Example 368]
< 500 nM	CCS(O)(O)c1ccc(OC2CCC(F)(F)CC2)c(-c2cn(C)c(=O)c3cncn23)c1 [US10941160, Example 373]

IC50	Compound
< 500 nM	CCS(O)(O)c1ccc(OC2CCCC2)c(-c2cn(C)c(=O)c3cncn23)c1 [US10941160, Example 374]
< 500 nM	CCS(O)(O)c1ccc(NCC2CC2)c(-c2cn(C)c(=O)c3cncn23)c1 [US10941160, Example 375]
< 500 nM	CCS(O)(O)c1ccc(Oc2ccc(F)cc2F)c(-c2cn(C)c(=O)c3cncn23)c1 [US10941160, Example 376]
< 500 nM	CCS(O)(O)c1ccc(OCC2CC2)c(-c2cn(C)c(=O)c3ccoc23)c1 [US10941160, Example 378]
< 500 nM	CC#CCOc1ccc(S(O)(O)CC)cc1-c1cc(OC)c(=O)n(C)c1 [US10941160, Example 389]
< 500 nM	CCC#CCOc1ccc(S(O)(O)CC)cc1-c1cc(OC)c(=O)n(C)c1 [US10941160, Example 390]
< 500 nM	CCS(O)(O)c1ccc(OCC#CC2CC2)c(-c2cc(OC)c(=O)n(C)c2)c1 [US10941160, Example 391]
< 500 nM	COc1ccc2c(=O)n(C)cc(-c3cc(S(O)(O)C(C)C)ccc3OCC3CC3)c2c1 [US10941160, Example 393]
< 500 nM	Cc1cc(-c2cc(S(O)(O)C(C)C)ccc2OCC2CC2)cn(C)c1=O [US10941160, Example 394]
< 500 nM	CCS(O)(O)Nc1cc(OCc2ccccc2)cc(-c2cc(C)c(=O)n(C)c2)c1 [US10941160, Example 395]
< 500 nM	CCS(O)(O)c1ccc(Nc2ccc(F)cc2F)c(-c2cc(C)c(=O)n(C)c2)c1 [US10941160, Example 396]
< 500 nM	CCS(O)(O)c1ccc(NC2CCC(F)(F)CC2)c(-c2cc(C)c(=O)n(C)c2)c1 [US10941160, Example 397]
< 500 nM	CCS(O)(O)c1ccc(OCC2CC2)c(-c2cc(OC)c(=O)n(C)c2)c1 [US10941160, Example 399]
< 500 nM	CCS(O)(O)c1ccc(NCC2CC2)c(-c2cc(NC)c(=O)n(C)c2)c1 [US10941160, Example 408]
< 500 nM	CCS(O)(O)c1ccc(OCC2CC2)c(-c2cc(NC)c(=O)n(C)c2)c1 [US10941160, Example 409]
< 500 nM	CCS(O)(O)Cc1ccc(OCC(F)(F)F)c(-c2cc(C)c(=O)n(C)c2)c1 [US10941160, Example 411]
< 500 nM	CCS(O)(O)c1ccc(NCC2CC2)c(-c2cc(OC)c(=O)n(C)c2)c1 [US10941160, Example 414]
